Assay results published in article PMC12491383, “Organ and tumour dosimetry of ^177Lu-rhPSMA-10.1, a novel PSMA-targeted therapy: results from a Phase I trial” (European Journal of Nuclear Medicine and Molecular Imaging, 2025).
Where “and” joins values, the source holds several entries; their conditions need not be identical. Equal values may be shown once.

Test: SPECT/CT image-based normal organ dosimetry (MIRD S-value methodology), Phase I BET-PSMA-121
Assay type: in vivo, human
Conditions: for Cumulative image-based absorbed dose, bone marrow, range across patients / Cumulative image-based absorbed dose, salivary glands, range across patients: all cycles; for Cumulative Absorbed Dose, Bone Marrow, % of dose limit: limit 2 Gy; for Cumulative Absorbed Dose, Kidney, % of dose limit: limit 23 Gy; for Cumulative Absorbed Dose, Salivary Glands, % of dose limit: limit 24 Gy
Description: Figure 1 provides a schematic representation of the study. Enrolled patients were sequentially entered into one of the two cohorts. Cohort A received 5.55 GBq (150 mCi) of ^177Lu-rhPSMA-10.1 and Cohort B received 7.40 GBq (200 mCi) of ^177Lu-rhPSMA-10.1. Subsequent doses were delivered at 6-week intervals subject to individual tolerability and safety assessments. Each patient received between one and three cycles, with a maximum of three cycles of treatment being permitted in this initial part of the study. All administrations of ^177Lu-rhPSMA-10.1 were performed using intravenous injection under the supervision of the treating physician.
Multi-bed single-photon emission computed tomography (SPECT)/CT was conducted at 3-, 24-, 48- and 168-hours post-^177Lu-rhPSMA-10.1 administration in each treatment cycle for the estimation of organ and tumour absorbed doses in each patient. Prior to commencement of the study, each investigating site was required to complete a calibration of their dose calibrator and SPECT/CT system to ensure harmonised quantification of the imaging data. Quantitative reconstructions and all dosimetry analyses were carried out centrally by an independent dosimetry vendor (Radiopharmaceutical Imaging and Dosimetry LLC, Baltimore, MD).
The specific absorbed doses (Gy/GBq) in normal organs and tumours were determined using the Medical Internal Radiation Dose (MIRD) Committee S-value methodology. Individual patient organ masses, determined via CT delineation, were scaled to reflect deviations from reference phantom geometry. Cumulative organ absorbed doses (Gy) were calculated across all treatment cycles. Further details on dosimetry methodology are provided in the supplemental materials and have been reported in accordance with EANM guidance.
All patients underwent multi-bed single-photon emission computed tomography (SPECT)/CT at 3-, 24-, 48- and 168-hours post-^177Lu-rhPSMA-10.1 administration during each treatment cycle. The acquisition parameters are shown in Supplemental Table S1. All images were centrally reconstructed in 3D-RD-S using the iterative Ordered Subsets Expectation-Maximization (OSEM) algorithm with 40 iterations and 5 subsets. Attenuation, scatter, and the Collimator-Detector Response Function (CDRF) were modelled during the iterative process using a rotation-based projector. CT-based attenuation compensation was performed using the attenuation map generated from the CT image. Scatter was modelled using the Effective Source Scatter Estimation (ESSE) method.
Reconstructed images were converted to activity concentration units (Becquerel (Bq)/millilitre (mL)) using the calibration factor generated for each individual imaging system. Organ masses were individually determined using CT-based delineations and longitudinal SPECT activity statistics were based on these same delineations.
Time integrated activity coefficients (TIACs) were calculated for each target tissue. This was done by fitting each time–activity curve with an exponential function (mono, bi, or exponential uptake and washout) and integrating from time 0 to infinity. The simpler function was preferred provided the fit was adequate ([…]).
The TIAC in the bone marrow was derived from contours drawn around the marrow inside lumbar vertebrae L3–L5. Where lesions were present in the lumbar area, contours were drawn around either the femur heads, scapula or sternum depending on the anatomical coverage. The TIAC was then divided by the marrow mass in this region to give the TIAC concentration. The total bone marrow TIAC was be obtained as the product of this concentration and the standard International Commission on Radiological Protection (ICRP) bone marrow mass.
The S-value methodology was used to estimate the target tissue dose. […]

[1] = Cohort A (5.55 GBq/cycle), 3 patients
[2] = Cohort B (7.40 GBq/cycle), 10 patients
[3] = Patient 1, Cohort A, 3 cycles, 16.20 GBq cumulative
[4] = Patient 2, Cohort A, 2 cycles, 11.57 GBq cumulative
[5] = Patient 3, Cohort A, 3 cycles, 16.58 GBq cumulative
[6] = Patient 4, Cohort B, 3 cycles, 22.94 GBq cumulative

CC(C)(C)[Si](F)(c1ccc(C(=O)NC[C@@H](NC(=O)CN2CCN(CC(=O)[O-])CCN(CC(=O)[O-])CCN(CC(=O)[O-])CC2)C(=O)N[C@H](CCCCNC(=O)CCC(=O)NCCC[C@@H](NC(=O)CC[C@H](NC(=O)N[C@@H](CCC(=O)O)C(=O)O)C(=O)O)C(=O)O)C(=O)O)cc1)C(C)(C)C.[177Lu+3] [^177Lu-rhPSMA-10.1]
Mean (SD) Absorbed Dose, adrenals (All Cycles): 0.010 (0.018) Gy/GBq | Mean (SD) Absorbed Dose, bladder wall (All Cycles): 0.018 (0.010) Gy/GBq | Mean (SD) Absorbed Dose, bone marrow (image-based) (All Cycles): 0.011 Gy/GBq and 0.011 (0.020) Gy/GBq | Mean (SD) Absorbed Dose, brain (All Cycles): 0.003 (0.004) Gy/GBq | Mean (SD) Absorbed Dose, gall bladder wall (All Cycles): 0.004 (0.002) Gy/GBq | Mean (SD) Absorbed Dose, heart (All Cycles): 0.014 (0.003) Gy/GBq | Mean (SD) Absorbed Dose, intestine (All Cycles): 0.002 (0.001) Gy/GBq | Mean (SD) Absorbed Dose, kidneys (All Cycles): 0.297 (0.098) Gy/GBq | Mean (SD) Absorbed Dose, lacrimal glands (All Cycles): 0.611 (0.329) Gy/GBq | Mean (SD) Absorbed Dose, liver (All Cycles): 0.035 (0.018) Gy/GBq | Mean (SD) Absorbed Dose, lungs (All Cycles): 0.049 (0.055) Gy/GBq | Mean (SD) Absorbed Dose, pancreas (All Cycles): 0.002 (0.001) Gy/GBq | Mean (SD) Absorbed Dose, prostate (All Cycles): 0.003 (0.002) Gy/GBq | Mean (SD) Absorbed Dose, salivary glands (All Cycles): 0.134 (0.077) Gy/GBq | Mean (SD) Absorbed Dose, spleen (All Cycles): 0.034 (0.019) Gy/GBq | Mean (SD) Absorbed Dose, stomach wall (All Cycles): 0.004 (0.003) Gy/GBq | Mean (SD) Absorbed Dose, ureters (All Cycles): 0.002 (0.001) Gy/GBq | Cumulative image-based absorbed dose, bone marrow, range across patients [1]: 0.14–0.87 Gy | Cumulative image-based absorbed dose, salivary glands, range across patients [1]: 1.25–5.53 Gy | Cumulative image-based absorbed dose, bone marrow, range across patients [2]: 0.03–0.42 Gy | Cumulative image-based absorbed dose, salivary glands, range across patients [2]: 0.79–3.40 Gy | Mean (SD) Absorbed Dose, adrenals (Cycle 1, 13 patients): 0.007 (0.002) Gy/GBq | Mean (SD) Absorbed Dose, bladder wall (Cycle 1, 13 patients): 0.018 (0.013) Gy/GBq | Mean (SD) Absorbed Dose, bone marrow (image-based) (Cycle 1, 13 patients): 0.011 (0.010) Gy/GBq | Mean (SD) Absorbed Dose, brain (Cycle 1, 13 patients): 0.002 (0.001) Gy/GBq | Mean (SD) Absorbed Dose, gall bladder wall (Cycle 1, 13 patients): 0.004 (0.002) Gy/GBq | Mean (SD) Absorbed Dose, heart (Cycle 1, 13 patients): 0.013 (0.004) Gy/GBq | Mean (SD) Absorbed Dose, intestine (Cycle 1, 13 patients): 0.002 (0.001) Gy/GBq | Mean (SD) Absorbed Dose, kidneys (Cycle 1, 13 patients): 0.266 Gy/GBq and 0.27 Gy/GBq and 0.266 (0.075) Gy/GBq | Mean (SD) Absorbed Dose, lacrimal glands (Cycle 1, 13 patients): 0.568 (0.348) Gy/GBq | Mean (SD) Absorbed Dose, liver (Cycle 1, 13 patients): 0.034 (0.021) Gy/GBq | Mean (SD) Absorbed Dose, lungs (Cycle 1, 13 patients): 0.058 (0.072) Gy/GBq | Mean (SD) Absorbed Dose, pancreas (Cycle 1, 13 patients): 0.002 (0.001) Gy/GBq | Mean (SD) Absorbed Dose, prostate (Cycle 1, 13 patients): 0.003 (0.002) Gy/GBq | Mean (SD) Absorbed Dose, salivary glands (Cycle 1, 13 patients): 0.130 Gy/GBq and 0.13 Gy/GBq and 0.130 (0.068) Gy/GBq | Mean (SD) Absorbed Dose, spleen (Cycle 1, 13 patients): 0.034 (0.023) Gy/GBq | Mean (SD) Absorbed Dose, stomach wall (Cycle 1, 13 patients): 0.005 (0.005) Gy/GBq | Mean (SD) Absorbed Dose, ureters (Cycle 1, 13 patients): 0.002 (0.001) Gy/GBq | Cumulative Absorbed Dose, Bone Marrow [3]: 0.14 Gy | Cumulative Absorbed Dose, Kidney [3]: 8.20 Gy | Cumulative Absorbed Dose, Salivary Glands [3]: 5.53 Gy | Cumulative Absorbed Dose, Bone Marrow, % of dose limit [3]: 7.0% | Cumulative Absorbed Dose, Kidney, % of dose limit [3]: 36% | Cumulative Absorbed Dose, Salivary Glands, % of dose limit [3]: 23% | Cumulative Absorbed Dose, Bone Marrow [4]: 0.14 Gy | Cumulative Absorbed Dose, Kidney [4]: 5.86 Gy | Cumulative Absorbed Dose, Salivary Glands [4]: 1.25 Gy | Cumulative Absorbed Dose, Bone Marrow, % of dose limit [4]: 7.0% | Cumulative Absorbed Dose, Kidney, % of dose limit [4]: 25% | Cumulative Absorbed Dose, Salivary Glands, % of dose limit [4]: 5.2% | Cumulative Absorbed Dose, Bone Marrow [5]: 0.87 Gy | Cumulative Absorbed Dose, Kidney [5]: 6.15 Gy | Cumulative Absorbed Dose, Salivary Glands [5]: 2.96 Gy | Cumulative Absorbed Dose, Bone Marrow, % of dose limit [5]: 44% | Cumulative Absorbed Dose, Kidney, % of dose limit [5]: 27% | Cumulative Absorbed Dose, Salivary Glands, % of dose limit [5]: 12% | Cumulative Absorbed Dose, Bone Marrow [6]: 0.13 Gy | Cumulative Absorbed Dose, Kidney [6]: 8.33 Gy | Cumulative Absorbed Dose, Salivary Glands [6]: 2.87 Gy
